Tests used:
Experiment in all cases: fitness (endpoint OD595 vs no drug) (fraction); higher = more growth
S. aureus Newman = tested on: S. aureus Newman
Procedure, shortened: (§1)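 Fitness is computed from the optical density at which cultures reach stationary phase, divided by the robust mean of no-drug control wells. Any value above 1 is set to 1. Cultures started at OD595 0.01 in 384-well plates with TSB, LB Lennox or CY at 37 °C, and OD595 was read every 30 min for 14 h against a first-reading background.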

S. aureus DSM 20231 = tested on: S. aureus DSM 20231
Procedure, shortened: as §1

S. pneumoniae D39V = tested on: S. pneumoniae D39V
Procedure, shortened: as §1

B. subtilis 168 = tested on: B. subtilis 168
Procedure, shortened: as §1
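Note: OD595 on entry to stationary phase over no-drug wells; at most 1.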

CCC[C@@H]1C[C@@H](C(=O)N[C@@H]([C@H]2O[C@H](SC)[C@H](O)[C@@H](O)[C@H]2O)[C@H](C)Cl)N(C)C1 [Clindamycin] + CO/N=C(\C(=O)N[C@@H]1C(=O)N2C(C(=O)[O-])=C(C[N+]3(C)CCCC3)CS[C@H]12)c1csc(N)n1 [Cefepime]
Settings	fitness
S. aureus DSM 20231, first compound 0.125 µg/mL, partner 0.125 µg/mL	0.0728
S. aureus DSM 20231, first compound 0.125 µg/mL, partner 0.25 µg/mL	0.0809
S. aureus DSM 20231, first compound 0.125 µg/mL, partner 0.5 µg/mL	0.0837
S. aureus Newman, first compound 0.0312 µg/mL, partner 0.125 µg/mL	0.781
S. aureus Newman, first compound 0.0312 µg/mL, partner 0.25 µg/mL	0.713
S. aureus Newman, first compound 0.0312 µg/mL, partner 0.5 µg/mL	0.601
S. aureus Newman, first compound 0.125 µg/mL, partner 0.125 µg/mL	0.187
S. aureus Newman, first compound 0.125 µg/mL, partner 0.25 µg/mL	0.158
S. aureus Newman, first compound 0.125 µg/mL, partner 0.5 µg/mL	0.151
S. pneumoniae D39V, first compound 0.0125 µg/mL, partner 0.0078 µg/mL	0.809
S. pneumoniae D39V, first compound 0.0125 µg/mL, partner 0.0155 µg/mL	0.818
S. pneumoniae D39V, first compound 0.0125 µg/mL, partner 0.031 µg/mL	0.802
S. pneumoniae D39V, first compound 0.015 µg/mL, partner 0.007 µg/mL	0.914
S. pneumoniae D39V, first compound 0.015 µg/mL, partner 0.014 µg/mL	0.937
S. pneumoniae D39V, first compound 0.015 µg/mL, partner 0.028 µg/mL	0.841
S. pneumoniae D39V, first compound 0.025 µg/mL, partner 0.0078 µg/mL	0.599
S. pneumoniae D39V, first compound 0.025 µg/mL, partner 0.0155 µg/mL	0.57
S. pneumoniae D39V, first compound 0.025 µg/mL, partner 0.031 µg/mL	0.523
S. pneumoniae D39V, first compound 0.03 µg/mL, partner 0.007 µg/mL	0.771
S. pneumoniae D39V, first compound 0.03 µg/mL, partner 0.014 µg/mL	0.789
S. pneumoniae D39V, first compound 0.03 µg/mL, partner 0.028 µg/mL	0.696
S. pneumoniae D39V, first compound 0.05 µg/mL, partner 0.0078 µg/mL	0.264
S. pneumoniae D39V, first compound 0.05 µg/mL, partner 0.0155 µg/mL	0.255
S. pneumoniae D39V, first compound 0.05 µg/mL, partner 0.031 µg/mL	0.241
S. pneumoniae D39V, first compound 0.06 µg/mL, partner 0.007 µg/mL	0.408
S. pneumoniae D39V, first compound 0.06 µg/mL, partner 0.014 µg/mL	0.411
S. pneumoniae D39V, first compound 0.06 µg/mL, partner 0.028 µg/mL	0.365

CCC[C@@H]1C[C@@H](C(=O)N[C@@H]([C@H]2O[C@H](SC)[C@H](O)[C@@H](O)[C@H]2O)[C@H](C)Cl)N(C)C1 [Clindamycin] + CO[C@@]12[C@H](COC(N)=O)C3=C(C(=O)C(C)=C(N)C3=O)N1C[C@@H]1N[C@@H]12 [Mitomycin C]
Settings	fitness
S. aureus DSM 20231, first compound 0.0312 µg/mL, partner 0.0312 µg/mL	0.466
S. aureus DSM 20231, first compound 0.0312 µg/mL, partner 0.0625 µg/mL	0.35
S. aureus DSM 20231, first compound 0.0625 µg/mL, partner 0.0156 µg/mL	0.149
S. aureus DSM 20231, first compound 0.0625 µg/mL, partner 0.0312 µg/mL	0.117
S. aureus DSM 20231, first compound 0.0625 µg/mL, partner 0.0625 µg/mL	0.103
S. aureus DSM 20231, first compound 0.125 µg/mL, partner 0.0156 µg/mL	0.0347
S. aureus DSM 20231, first compound 0.125 µg/mL, partner 0.0312 µg/mL	0.0369
S. aureus DSM 20231, first compound 0.125 µg/mL, partner 0.0625 µg/mL	0.083
S. aureus Newman, first compound 0.0312 µg/mL, partner 0.0156 µg/mL	0.537
S. aureus Newman, first compound 0.0312 µg/mL, partner 0.0312 µg/mL	0.483
S. aureus Newman, first compound 0.0312 µg/mL, partner 0.0625 µg/mL	0.412
S. aureus Newman, first compound 0.0625 µg/mL, partner 0.0156 µg/mL	0.421
S. aureus Newman, first compound 0.0625 µg/mL, partner 0.0312 µg/mL	0.355
S. aureus Newman, first compound 0.0625 µg/mL, partner 0.0625 µg/mL	0.243
S. aureus Newman, first compound 0.125 µg/mL, partner 0.0156 µg/mL	0.138
S. aureus Newman, first compound 0.125 µg/mL, partner 0.0312 µg/mL	0.163
S. aureus Newman, first compound 0.125 µg/mL, partner 0.0625 µg/mL	0.0658
S. pneumoniae D39V, first compound 0.0125 µg/mL, partner 0.002 µg/mL	0.651
S. pneumoniae D39V, first compound 0.0125 µg/mL, partner 0.004 µg/mL	0.593
S. pneumoniae D39V, first compound 0.0125 µg/mL, partner 0.008 µg/mL	0.495
S. pneumoniae D39V, first compound 0.015 µg/mL, partner 0.001075 µg/mL	0.912
S. pneumoniae D39V, first compound 0.015 µg/mL, partner 0.00215 µg/mL	0.889
S. pneumoniae D39V, first compound 0.015 µg/mL, partner 0.0043 µg/mL	0.752
S. pneumoniae D39V, first compound 0.025 µg/mL, partner 0.002 µg/mL	0.36
S. pneumoniae D39V, first compound 0.025 µg/mL, partner 0.004 µg/mL	0.328
S. pneumoniae D39V, first compound 0.025 µg/mL, partner 0.008 µg/mL	0.322
S. pneumoniae D39V, first compound 0.03 µg/mL, partner 0.001075 µg/mL	0.708
S. pneumoniae D39V, first compound 0.03 µg/mL, partner 0.00215 µg/mL	0.689
S. pneumoniae D39V, first compound 0.03 µg/mL, partner 0.0043 µg/mL	0.57
S. pneumoniae D39V, first compound 0.05 µg/mL, partner 0.002 µg/mL	0.187
S. pneumoniae D39V, first compound 0.05 µg/mL, partner 0.004 µg/mL	0.144
S. pneumoniae D39V, first compound 0.05 µg/mL, partner 0.008 µg/mL	0.155
S. pneumoniae D39V, first compound 0.06 µg/mL, partner 0.001075 µg/mL	0.453
S. pneumoniae D39V, first compound 0.06 µg/mL, partner 0.00215 µg/mL	0.396
S. pneumoniae D39V, first compound 0.06 µg/mL, partner 0.0043 µg/mL	0.306

CCC[C@@H]1C[C@@H](C(=O)N[C@@H]([C@H]2O[C@H](SC)[C@H](O)[C@@H](O)[C@H]2O)[C@H](C)Cl)N(C)C1 [Clindamycin] + N[C@@H]1CONC1=O [Cycloserine D]
fitness
Settings	partner 0.125 µg/mL	partner 0.25 µg/mL	partner 0.375 µg/mL	partner 0.5 µg/mL	partner 0.75 µg/mL	partner 1.5 µg/mL
B. subtilis 168, first compound 0.0625 µg/mL	0.592	0.512	–	0.549	–	–
B. subtilis 168, first compound 0.125 µg/mL	0.413	0.365	–	0.363	–	–
B. subtilis 168, first compound 0.25 µg/mL	0.396	0.348	–	0.329	–	–
S. aureus DSM 20231, first compound 0.0625 µg/mL	–	–	0.0659	–	0.0748	0.0881
S. aureus DSM 20231, first compound 0.125 µg/mL	–	–	0.0216	–	0.0398	0.0593
S. aureus Newman, first compound 0.0312 µg/mL	–	–	0.732	–	0.735	0.746
S. aureus Newman, first compound 0.125 µg/mL	–	–	0.0953	–	0.115	0.103

fitness, B. subtilis 168, one replicate
Settings	first compound 0.0039 µg/mL	first compound 0.0078 µg/mL	first compound 0.0156 µg/mL
partner 0.125 µg/mL	0.985	0.927	0.879
partner 0.25 µg/mL	0.974	0.859	0.796
partner 0.5 µg/mL	≥ 1	0.901	0.845

Reference: the supplement of paper PMC10627819
